Test results taken from article PMC4809498, “Artonin E Induces Apoptosis via Mitochondrial Dysregulation in SKOV-3 Ovarian Cancer Cells” (PLoS ONE, 2016).
≈ marks a conversion by molar mass, not a printed value.

Key:
Assay type in all cases: cell-based, human
T1074 cells = assay: MTT cell viability assay, T1074; details: Homo sapiens
Description: Metastatic ovarian adenocarcinoma (SKOV-3) and normal Chinese hamster ovary (CHO) cell lines were originally obtained from the American Type Culture Collection (ATCC; Manassas, VA). SKOV-3 cells were cultured in McCoy’s 5A medium and CHO cells were cultured in F12K medium. A human periodontal ligament fibroblast cell line was purchased from Lonza, USA and maintained in stroma cell basal medium. T1074 (normal immortalized human ovarian surface epithelial cell line) was originally purchased from Applied Biological Materials (abm®) Canada and cultured in Prigrow 1 medium.
The inhibitory effects of artonin E and two positive controls paclitaxel and carboplatin were examined by MTT assay. Cells at a density of 5×10^3cells/well were placed in a 96-well plate and left for 24 h to attach. The attached cells were exposed to artonin E, paclitaxel, and carboplatin at different concentrations and incubated for 24, 48, and 72 h. Subsequently, 20 μL of 5 mg/mL MTT solution was added after drug treatment and the resulting mixture was incubated for 4 h to form purple formazan. Afterward, 100 μL of dimethyl sulfoxide (DMSO) was transferred into each well to dissolve the purple formazan, and results were measured using a microplate reader (Tecan Infinite M 200 PRO, Männedorf, Switzerland) at an absorbance of 570 nm. The half-maximal concentrations that caused cell growth inhibition (IC50 values) were obtained from the MTT viability growth curve.

SKOV-3 cells [1] = assay: Annexin V-FITC/PI flow cytometry; details: SKOV-3, 8 μg/mL
Description: An Annexin V assay was performed using a BD Pharmingen^TM Annexin V-FITC Apoptosis Detection Kit (ApoAlert Annexin V, Clontech, California, USA). The cells were placed in a 6-well plate and left overnight to attach. Cells were then treated with 8 μg/mL of artonin E for 24, 48, and 72h. The treated cells were trypsinized and centrifuged at 1,500 rpm for 10 min to remove residual media. Subsequently, 1X binding buffer was added to rinse the fresh pellets before their resuspension in 200 μL of binding buffer. The cells were then mixed with 5 μL of Annexin V and 10 μL of PI and incubated for 15 min in the dark at room temperature. The prepared cells were immediately analyzed using flow cytometric analysis (FACS Canto 11 Becton-Dickson). Then, 300 μL of binding buffer was added to each sample to adjust the reaction volume to at least 500 μL for the flow cytometric analysis. The cells treated with DMSO (0.1%, v/v) were used as control.

SKOV-3 cells [2] = assay: Intracellular ROS generation (DCFH-DA); details: SKOV-3, 8 μg/mL
Description: 2′,7′-Dichlorofluorescin diacetate (DCFH-DA) was used to examine the production of intracellular reactive oxygen species in SKOV-3 cells treated with artonin E. The SKOV-3 cells were seeded in the 96-well black plate and incubated overnight to attach. The cells were then treated with 8 μg/mL of artonin E for 24, 48, and 72 h. Hank’s balanced salt solution without serum was used to wash the cells. Then, 100 μL of DCFH-DA solution was added to each designated well, and the plate was incubated at 37°C for 30 min. The results were analyzed using a fluorescence microplate reader (Tecan Infinite M 200 PRO, Männedorf, Switzerland) at 485 nm excitation and 520 nm emission.

SKOV-3 cells [3] = assay: Multiparametric Cytotoxicity 3 high-content screening; details: SKOV-3, 8 μg/mL
Description: Cellomics Multiparameter Cytotoxicity 3 kit (Thermo Scientific^TM, Pittsburgh, PA, USA) was used to perform simultaneous detection of the crucial apoptotic events in SKOV-3 cells treated with artonin E. Briefly, SKOV-3 cells were seeded at a density of 5000 cells/well in a black flat-bottomed 96-well plates (PerkinElmer, Inc., Wellsley, MA, USA) and left overnight to attach. The attached cells were treated with 8 μg/mL artonin E for 24, 48, and 72 h. The treated cells were then exposed to 50 μL of live cell staining solution for 30 min. The excess medium and live cell staining solution were gently removed and the cells were then fixed with 16% paraformaldehyde. After fixation, the cells were exposed with permeabilization buffer followed by blocking buffer for 15 min at room temperature. Primary Cytochrome C antibodies and secondary DyLight 649 conjugated goat antimouse IgG were added and allowed to interact for 1 h each. Hoechst 33342 dye was used to stain nuclei in SKOV-3 cells. Stained SKOV-3 cells in the 96-well plates were analyzed using ArrayScan high-content screening (HCS) system. All experiments were conducted in triplicates and experiments were repeated twice.

caspase-9 = assay: Colorimetric caspase-9 activation assay; details: SKOV-3, 8 μg/mL, from 24 h, prolonged exposure
Description: Calorimetric assay of the activation of caspases-3, -8, and -9 was conducted using R & D system kit, USA. Briefly, in a T75cm^2 flask 90% confluent SKOV-3 cells were induced with artonin E for 24, 48, and 72 h. The induced cells were trypsinized and centrifuged at 1,800 rpm for 10 min. The fresh pellets were washed with cold PBS and immediately lysed with protein lysis buffer. The cell lysate was then kept on ice for 10 min, centrifuged at 10,000 g for 15 min, and transferred into a new tube. The fresh cell lysate (50 μL), which contained 100–200 μg of protein, was added into a 96-well plate in triplicate. Fifty microliters of reaction buffer and 5 μL of caspase were then transferred into each designated well before incubating the plate in a CO2 incubator at 37°C for 2 h. A microplate reader (Tecan Infinite M 200 PRO, Männedorf, Switzerland) was used for analysis at a wavelength of 405 nm.

**Q.** How did the IC50 (T1074 cells; 24 h treatment) turn out when `CC(C)=CCc1c(-c2cc(O)c(O)cc2O)oc2c3c(cc(O)c2c1=O)OC(C)(C)C=C3` [Artonin E, artonin E] was run?
**A.** 44.8 ± 0.76 µg/mL (≈ 103 µM)

**Q.** What about the IC50 (T1074 cells; 48 h treatment) of the same compound?
**A.** 37.5 ± 0.53 µg/mL (≈ 85.9 µM)

**Q.** What about the IC50 (T1074 cells; 72 h treatment) of the same compound?
**A.** 32.5 ± 0.5 µg/mL (≈ 74.5 µM)

**Q.** And the “cells at the early stage of apoptosis” value (SKOV-3 cells [1]; 24 h post treatment)?
**A.** more than 40%

**Q.** What about the “cells at the late stage of apoptosis” value (SKOV-3 cells [1]; 48 h post treatment) of the same compound?
**A.** more than 40%

**Q.** What about the “increase in the formation of ROS compared with untreated cells” value (SKOV-3 cells [2]; 24 and 48 h after treatment) of the same compound?
**A.** twofold

**Q.** And the ROS induction (SKOV-3 cells [2]; 72 h after treatment)?
**A.** slightly decreased

**Q.** And the “cytochrome c fluorescence intensities” value (SKOV-3 cells [3]; prolonged treatment periods)?
**A.** increase

**Q.** And the cell permeability (SKOV-3 cells [3]; time-dependent (24, 48, 72 h))?
**A.** marked increased

**Q.** And the “green fluorescence intensity of MMP” value (SKOV-3 cells [3]; time-dependent (24, 48, 72 h))?
**A.** significant (p<0.05) reduction

**Q.** What about the “stimulation of caspase-9” value (caspase-9) of the same compound?
**A.** increased significantly
